Experimental data: PMC12147183, “Lacritin cleavage-potentiated targeting of iron - respiratory reciprocity promotes bacterial death” (The Journal of Biological Chemistry, 2025)
Peptide text beside a SMILES is read from it.

Key:
His-tagged FeoB = His-tagged FeoB binding to peptide columns; parameters: species or system P. aeruginosa PAO1; conditions: step gradient 0.3, 0.5, 1.0 M KCl, 0.05% dodecyl-β-D-maltopyranoside, 4 °C, anti-His Western blot, n = 3
Description: (§1) We used the pFeoB plasmid ([6]) with feoB insert from P. aeruginosa PAO1 in pET41-a(+) with a C-terminal 8-His tag and kanamycin-resistant cassette, and E. coli EcCD00397460 plasmid (DNASU Plasmid Repository, Tempe Arizona) with potH insert in PCDF Bravo with C-terminal 10-His tag and streptomycin-resistant cassette. Plasmids of each were generated using standard procedures. His-tagged FeoB or PotH proteins in the supernatant were captured on Ni-Sepharose for 4 h with end-over-end rotation at 4 °C, washed with 10 mM HEPES potassium salt, 10% glycerol, 0.5 M NaCl, 10 mM MgSO4, 10 mM imidazole, and 0.05% dodecyl-β-D-maltopyranoside and eluted with the same wash buffer but containing 0.2 M NaCl and 0.5 M imidazole. Eluted FeoB and PotH were concentrated into 10 mM HEPES potassium salt, 10% glycerol, 10 mM MgSO4, 0.05% dodecyl-β-D-maltopyranoside and 0.15 M NaCl respectively on Amicon Ultra-0.5 Centrifugal UFC505024, UFC503024 and UFC900596 filter units.
(§2) N-104 and C-95 columns (1 ml each) equilibrated in 10 mM HEPES potassium salt, 10% glycerol, 10 mM MgSO4, 0.05% dodecyl-β-D-maltopyranoside, and 0.15 M NaCl were individually mixed at 4 °C overnight with purified FeoB and PotH. […]

His-tagged PotH = target: T1, His-tagged PotH (Escherichia coli, UniProt P31135); experiment: His-tagged PotH binding to peptide columns; parameters: species or system E. coli; conditions: step gradient 0.3, 0.5, 1.0 M KCl, 0.05% dodecyl-β-D-maltopyranoside, 4 °C, anti-His Western blot, n = 3
T1 construct: host or cells: legend says PA14
T1 sequence (P31135 whole entry): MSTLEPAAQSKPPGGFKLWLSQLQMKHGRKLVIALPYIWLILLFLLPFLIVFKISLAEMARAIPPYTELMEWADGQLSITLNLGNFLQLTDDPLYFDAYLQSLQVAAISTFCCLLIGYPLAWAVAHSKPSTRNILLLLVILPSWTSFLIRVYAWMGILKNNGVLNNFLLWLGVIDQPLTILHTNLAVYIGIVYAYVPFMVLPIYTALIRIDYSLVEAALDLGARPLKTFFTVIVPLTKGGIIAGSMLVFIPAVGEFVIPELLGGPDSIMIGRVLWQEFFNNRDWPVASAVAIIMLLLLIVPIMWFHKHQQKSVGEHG
Description: as §1, §2

[1] = test system: ^14C-spermidine uptake by PA14; type: cell-based, Pseudomonas aeruginosa
Description: 100 μl aliquots (0.8 × 10^8 cfu) of PA14 cell cultures in 1 mM Na2HPO4, 0.18 mM KH2PO4, 0.27 mM KCl, 13.7 mM NaCl without or with 1, 10, 25, 50 or 100 μM N-104 (or N-80/C-25 or C-95) for 45 min at 35 °C were incubated with 1 μl of 10 mM [1,4-^14C]putrescine (0.1 mCi/ml; ARC-0245–250, American Radiolabeled Chemicals) or [1,4-^14C]spermidine (0.1 mCi/ml; ARC-3138–50, American Radiolabeled Chemicals) for 15 min at 35 °C. Cell pellets were washed four times with 100 μl of 10 mM Na2HPO4, 1.8 mM KH2PO4, 2.7 mM KCl, 137 mM NaCl (pH 7.2) and then transferred to 4 ml of scintillation fluid (1200.437, PerkinElmer OptiPhase HiSafe 3) for analysis in a Beckman Coulter LS6500. Also assessed was radioactivity from the last wash. Single-molecule transportation per cell was estimated using standard curves for each radiolabeled polyamine.

GKY20 = GKY20 (Homo sapiens, UniProt P00734); experiment: Dot blot binding assay on immobilized GKY20; conditions: 20 μM peptide, 2 h at 35 °C, LI-COR detection
Description: After washing three times for 10 min, each with 10 ml of 10 mM Na2HPO4, 1.8 mM KH2PO4, 2.7 mM KCl, 137 mM NaCl (pH 7.2), nitrocellulose membranes were incubated overnight at 4 °C with 1 μg/ml of either rabbit polyclonal ab-C-term with specificity for the C-terminal 54 amino acids of lacritin ([86]) appropriate for N-104 or its analogs, or with rabbit anti-lacritin N-terminus antibody ab-N-term appropriate for C-95. Membranes washed three times for 10 min each with 10 ml of 10 mM Na2HPO4, 1.8 mM KH2PO4, 2.7 mM KCl, 137 mM NaCl (pH 7.2), were then incubated with 0.1 μg/ml of IRDye 680RD labeled donkey antirabbit IgG (926-68073, LI-COR) as described above for LI-COR Odyssey CLx detection.

Structure (SMILES): C[C@H](NC(=O)CNC(=O)[C@@H](NC(=O)[C@H](CO)NC(=O)[C@H](CC(=O)O)NC(=O)[C@H](CO)NC(=O)[C@H](CO)NC(=O)[C@H](C)NC(=O)[C@H](CC(=O)O)NC(=O)[C@@H](N)CCC(=O)O)[C@@H](C)O)C(=O)N[C@@H](CC(=O)O)C(=O)N1CCC[C@H]1C(=O)N[C@@H](C)C(=O)N[C@@H](CCC(N)=O)C(=O)N[C@@H](CCC(=O)O)C(=O)N[C@@H](C)C(=O)NCC(=O)N[C@H](C(=O)N[C@@H](CO)C(=O)N[C@@H](CCCCN)C(=O)N1CCC[C@H]1C(=O)N[C@@H](CC(N)=O)C(=O)N[C@@H](CCC(=O)O)C(=O)N[C@@H](CCC(=O)O)C(N)=O)[C@@H](C)O [C-95, reference compound] (H-EDASSDSTGADPAQEAGTSKPNEE-NH2)
- KCl elution of His-FeoB from immobilized peptide (His-tagged FeoB): lacked
- KCl elution of His-PotH from immobilized peptide (His-tagged PotH): lacked
- effect on ^14C-spermidine uptake ([1]; 1 to 100 μM peptide): had no effect
- binding to nitrocellulose-immobilized GKY20 (GKY20): Only N-104 bound to GKY20

Structure (SMILES): CC(=O)N[C@@H](C)C(=O)N[C@@H](CCC(N)=O)C(=O)N[C@@H](CCCCN)C(=O)N[C@@H](CC(C)C)C(=O)N[C@@H](CC(C)C)C(=O)N[C@@H](CCCCN)C(=O)N[C@@H](CCCCN)C(=O)N[C@@H](Cc1ccccc1)C(=O)N[C@@H](CO)C(=O)N[C@@H](CC(C)C)C(=O)N[C@@H](CC(C)C)C(=O)N[C@@H](CCCCN)C(=O)N1CCC[C@H]1C(=O)N[C@@H](Cc1c[nH]c2ccccc12)C(=O)N[C@@H](C)C(=O)O [N-104] (Ac-AQKLLKKFSLLKPWA-OH)
- KCl elution of His-FeoB from immobilized peptide (His-tagged FeoB): eluted with 0.5 and 1 M but not 0.3 M KCl
- KCl elution of His-PotH from immobilized peptide (His-tagged PotH): eluted with 0.5 and 1 M but not 0.3 M KCl
- IC50 [1]: 10 µM
- binding to nitrocellulose-immobilized GKY20 (GKY20): bound to GKY20
